Consider five compounds from patent EP0752477A2, “Expression vectors that produce steroid receptors, steroid receptor chimera, screening assays for steroid receptors and clinical assays using synthesized receptors and receptor vectors” (BAYLOR COLLEGE OF MEDICINE, priority 1990, dated 1991).

In one test the test system is GAL4. Briefly: Activation of GAL4/ERE binding site chimera reporters by galactose in BJ3505. The format is cell-based, Saccharomyces cerevisiae. The note with it: grown in galactose. The source says: It is known that the estrogen receptor binds to and activates gene transcription through a 13 bp palindromic sequence (ERE). Placing ERE upstream of the promoter in a CYC-l-β-gal fusion vector and transforming into Saccharomyces cerevisiae results in a reporter which responded to estrogen in a receptor-dependent manner. To monitor the binding of the estrogen receptor to the ERE sequence in vivo, an interference assay was developed. An oligonucleotide containing a GAL4 (17 mer) recognition sequence and an ERE was constructed such that the two sites would overlap by 1 base. In this way only ER or GAL4 but not both molecules could occupy the same site. This sequence was cloned as a single, double, or triple copy distal to the promoter in a yeast iso-l-cytochrome C reporter (PC3).
These plasmids were introduced into yeast and assayed for transcriptional activity in the presence of glucose and galactose. The results are shown in Table I and reveal that galactose induced transcription of the reporter gene, and activity increased dramatically as the number of GAL sites increased. When grown in glucose, transcriptional activity was completely repressed.

The target in test [1] is T1, chicken progesterone receptor (Gallus gallus, UniProt P07812).
T1 construct: ubiquitin (N, cleaved yes); expressed in transfected cells
T1 sequence (P07812 1-786): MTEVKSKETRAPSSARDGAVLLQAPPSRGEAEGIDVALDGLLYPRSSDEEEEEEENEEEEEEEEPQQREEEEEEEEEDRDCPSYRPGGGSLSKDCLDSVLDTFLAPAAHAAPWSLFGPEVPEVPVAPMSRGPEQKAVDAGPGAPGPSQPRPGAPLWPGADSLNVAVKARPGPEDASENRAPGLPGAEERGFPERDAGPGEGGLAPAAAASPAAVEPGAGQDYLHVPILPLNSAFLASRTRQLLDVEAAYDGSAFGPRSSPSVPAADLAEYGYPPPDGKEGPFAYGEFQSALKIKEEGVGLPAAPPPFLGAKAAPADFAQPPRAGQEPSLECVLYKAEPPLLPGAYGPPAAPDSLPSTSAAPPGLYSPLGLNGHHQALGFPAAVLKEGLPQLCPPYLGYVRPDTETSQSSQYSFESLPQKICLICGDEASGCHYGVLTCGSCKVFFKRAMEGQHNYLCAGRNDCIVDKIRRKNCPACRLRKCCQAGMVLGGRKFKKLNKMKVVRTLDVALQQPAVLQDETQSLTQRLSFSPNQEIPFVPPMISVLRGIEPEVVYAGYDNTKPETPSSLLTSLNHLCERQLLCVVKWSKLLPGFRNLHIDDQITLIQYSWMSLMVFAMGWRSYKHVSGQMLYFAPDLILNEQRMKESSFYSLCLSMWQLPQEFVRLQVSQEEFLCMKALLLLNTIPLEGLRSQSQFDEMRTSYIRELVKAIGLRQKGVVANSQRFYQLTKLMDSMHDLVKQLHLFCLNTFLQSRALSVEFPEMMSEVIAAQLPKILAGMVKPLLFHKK
Briefly: β-Galactosidase transcription assay in yeast with expression plasmid and reporter YRpP1. In kind it is cell-based. As to the method: A reporter YRpP1 containing the progesterone responsive sequence and the β-Galactosidase gene was used to quantitate the transcriptional activity of the chicken progesterone receptor. Yeast containing both the expression and the reporter plasmids was grown overnight in minimal media supplemented with 2% glucose. […] Four sets of tubes were inoculated (a) no additions, (b) +100µM CuSO4, (c) +0.1µM progesterone, and (d) +100µM CuSO4, 0.1µM progesterone. When the cells reached mid-log phase they were harvested by centrifugation. The cells were lysed using glass beads and the cytosol was clarified by centrifugation. Aliquots (1-100µg) of protein were assayed for β-Galactosidase activity according to the method of Miller and expressed as units/mg protein.

Another test concerns YRpEG3 reporter. Nature of the test: Activity of the YRpEG3 reporter alone (no receptor). In kind it is cell-based, Saccharomyces cerevisiae. As to the method:
The transcriptional activity of the receptor was assayed under similar conditions to Example 15 except that the cells were grown in glucose (Fig. 1B). In the presence of glucose, the transcriptional activity of GAL4 is completely repressed because the GAL4 protein is incapable of binding to its response element. Under these conditions estrogen receptor activation of the GAL4-ERE can be monitored without interference. […] At all concentrations of receptor the activation of transcription was entirely hormone dependent.

A further test relates to Super ER. Briefly: Estrogen responsive reporter assay in yeast, modified (super) estrogen receptor with VP16 activating domain. The format is cell-based, human. The following applies: +CuSO4, no E2. The source says: (§1) The mechanism by which steroid receptors enhance transcription is unclear, however, there is a clear correlation between the ability of the receptor to activate transcription and the presence of an acidic activation region in the protein. […] As illustrated in Fig. 9 this was accomplished for the human estrogen receptor by digestion of the yeast expression vector for estrogen, YEpE2 with Notl, filling in the ends with T4 polymerase and religating in the presence of the filled in Rsal - Sall fragment of the VP16 protein. After the receptor is inserted in the proper orientation it produces a chimeric receptor which includes within its reading frame a VP16 activating domain.
(§2) A comparison of the wild type estrogen receptor and the modified receptor was made in yeast using the estrogen responsive reporters.
Background: A reporter such as luciferase makes a cellular process visible.

A further test deals with human estrogen receptor. Briefly: Estrogen responsive reporter assay in yeast, wild type estrogen receptor. In kind it is cell-based. The note with it: ER.
Excerpt: as §1, §2

As to `O=C[C@H](O)[C@@H](O)[C@@H](O)[C@H](O)CO` [Galactose, galactose], the “TRANSCRIPTIONAL ACTIVITY” value in the test with GAL4 (reporter YRpEG1, 1 binding site) is listed as 860; in the test on GAL4 (reporter YRpEG2, 2 binding sites), 2,350; in the test on GAL4 (reporter YRpEG3, 3 binding sites), 16,500.
Compound `O=S(=O)([O-])[O-].[Cu+2]` [CuSO4] registered a β-Galactosidase activity in test [1] (+100µM CuSO4, no progesterone) below 500 Miller units. In addition, in test [1] (CUP1 promoter driven receptor expression, other data, read-out: concentration sufficient to activate half maximally this transcription unit), the EC50 was determined as 1000 nM. Besides, the “direct effects on the activity of the YRpEG3 reporter alone” value (shortened to “direct effects on the activity”) in the test on YRpEG3 reporter was “no direct effects”. Moreover, the “activity of estrogen responsive reporter” value was 4133 Miller units per milligram of protein in the test on Super ER and 473 Miller units per milligram of protein in the test with human estrogen receptor (+CuSO4, no E2).
In the case of `CC(=O)[C@H]1CC[C@H]2[C@@H]3CCC4=CC(=O)CC[C@]4(C)[C@H]3CC[C@]12C` [Prog., progesterone, reference compound], the β-Galactosidase activity is given as below 500 Miller units in test [1] (+0.1µM progesterone, no CuSO4) and 50,000 Miller units in test [1] (+100µM CuSO4, 0.1µM progesterone).
`C[C@]12CC[C@@H]3c4ccc(O)cc4CC[C@H]3[C@@H]1CC[C@@H]2O` [E2, estradiol]: the “direct effects on the activity” value in the test with YRpEG3 reporter was “no direct effects”. Besides, the “activity of estrogen responsive reporter” value was 4344 Miller units per milligram of protein in the test on human estrogen receptor (+CuSO4+E2) and 5760 Miller units per milligram of protein with human estrogen receptor (+E2).
Consider `COc1ccc2c(c1)CCC(c1ccccc1)=C2c1ccc(OCCN2CCCC2)cc1` [nafoxidine], for which the “direct effects on the activity” value in the test with YRpEG3 reporter is recorded as “no direct effects”.
